Measured values taken from patent publication US6693073B2, “Pulmonary delivery of active agents” (Emisphere Technologies, Inc., priority 1998, dated 2004).
Where two headings read alike, the source gives them in different places. Blank lines part the entries; values can stand above or below the molecule they belong to.

Columns and labels:
[1] = Serum insulin after pulmonary instillation of insulin with carrier compound (Example 4); type: in vivo, rat; conditions: rats, spray instillation into airway; insulin 0.03 mg/kg with carrier compound 16 mg/kg
Description: Carrier compound B, carrier compound C sodium salt, and carrier compound D in Table 10 were tested as follows.
An endotracheal tube (spray instillator from Penn Century of Philadelphia, Pa.) with a syringe (Hamilton syringe) attached to the endotracheal tube was inserted using a fiber optic laryngoscope.

[2] = Solubility of carriers; type: physicochemical; conditions: water, thermodynamic from solid; clear solution, pH 6.85
[3] = test system: plasma glucose; assay: Plasma glucose pharmacodynamics after lung spray-IT instillation to rats; type: in vivo, Sprague Dawley female rats
Description: Determination of fasting plasma glucose levels was performed using the Ektachem DT Slide (GLU) method. The analysis is based on the enzyme-catalyzed reaction of glucose with molecular oxygen, followed by a second reaction that produces a highly-colored red dye. The intensity of the color is proportional to the amount of glucose in the sample.
The percentage minimum plasma glucose concentration (%MPGC) and the time T to attain each %MPGC (T%MPGC) were determined from the average plasma glucose levels versus-time profiles for the treatments.
The area above the curve effect (AACE) was calculated as follows:
AACE=Total area−AUCE (Eq.2)
where AUCE represents the area under the curve effect calculated using the trapezoidal rule.
The percentage total reduction in plasma glucose from 0→t (%TRPG 0→t) was determined using the following equation:
%TRPG0→t=100(AACE/total area) (Eq.3)

[4] = rat, in vivo
Description: Each rat was weighed and identified using an indelible marker and anesthetized by intraperitoneal injection of ketamine: Xylazine: Acepromazine cocktail, at 80 mg/kg, 10 mg/kg and 2.0 mg/kg, respectively and returned to its cage. The rat was transferred to the surgical bench and placed on a heating blanket thermostatically controlled via rectal probe, once deep anesthesia was achieved.
The right jugular vein of each rat was catheterized using silicone tubing and the patency of the catheter was confirmed by slowly flushing the cannula with 200 μl heparin saline and then withdrawing 100 μl of blood. The cannula was then cleared with 200 μl of heparinized saline solution.
An endotrachcal tube was inserted using a fiber optic laryngoscope. The syringe (Hamilton syringe) of the instillator was attached to the endotracheal tube and used to instill solution (100 μl) in the airways. The endotracheal tube was removed following administration, and the breathing rate was monitored throughout the remainder of the study.
Blood samples (500 μl) were withdrawn at 0, 10, 30, 60, 90, 120 and 180 min and the cannula flushed with approximately 200 μl of heparinized saline solution. The blood was collected in 1 ml tuberculin syringes (containing 100 μl heparin 20 μ/ml) placed directly into microcentrifuge tubes.
Blood samples were immediately centrifuged at 10 000 rpm for 4 min.
Average insulin plasma concentrations over time were subjected to standard compartmental and non-compartmental pharmacokinetic analysis.
Average concentrations of insulin were fitted to the following equation:
CPins=A(e^−ke 1+e^−ka 1) (Eq.1)
where A=D ka/Vd (ka−ke) is the concentration of drug in the body at time zero, ka is the first order absorption rate constant, ke is the first order elimination rate constant.
The area under the lung concentration-time curve (AUC0−1) was calculated by the trapezoidal rule. Interpolation to infinity was performed by dividing the last Cins measured by the first-order rate constant of the terminal phase. The total area under the curve was estimated by the summation of these two compounds.
The elimination half-life was calculated from 0.693/ke where ke is the slope of the terminal phase of the log of the concentration-time profile.
The non-compartment analysis for insulin plasma concentrations over time was performed using standard techniques. The time to peak CPins (Tmax) and peak CPins (Cmax) were determined from the non-fitted average plasma concentrations (CPins) versus-time profiles for the treatments. AUC was calculated by the trapezoidal rule. MRT was not calculated due to a lack of data following intravenous administration from which to calculate pharmacokinetic parameters.

[5] = lung spray-IT, insulin 0.01 mg/kg alone
[6] = lung spray-IT, insulin 0.05 mg/kg alone
[7] = spray-IT, porcine insulin 0.01 mg/kg, Table 3
[8] = spray-IT, porcine insulin 0.05 mg/kg, Table 3
[9] = spray-IT, porcine insulin 0.1 mg/kg, Table 3
[10] = spray-IT, porcine insulin 0.5 mg/kg, Table 3
[11] = spray-IT, porcine insulin 1.0 mg/kg, Table 3

Molecule: CC(C(=O)O)c1ccc(NC(=O)c2ccccc2O)cc1 (stereo not drawn) [Carrier B, 2-(4-(N-salicyloyl)aminophenyl) propionic acid]
Cmax (serum insulin) [1]: 44.6 ± 10.0 μU/ml

Molecule: CC(C(=O)[O-])c1ccc(NC(=O)c2ccccc2O)cc1.[Na+] (stereo not drawn) [Sodium Salt of Carrier B, Sodium 2-(4-(N-salicyloyl)aminophenyl)propionate]
solubility [2]: 200 mg/mL

Molecule: Porcine Insulin: Lyophilized porcine insulin 25.9 IU/mg (Emisphere Technologies)
% MPGC [3, 5]: 70.02%
% TRPG0-3 hr [3, 5]: 10.5±1.5%
AACE0-t [3, 5]: 1892 ± 989 mcU/min/ml
T % MPGC [3, 5]: 180 min
% TRPG0-3 hr ([3]; lung spray-IT, insulin 0.01 mg/kg alone, listed as Insulin alone): 10.5 ± 1.5%
% MPGC [3, 6]: 35.7%
% TRPG0-3 hr [3, 6]: 47±10%
AACE0-t [3, 6]: 8497 ± 1716 mcU/min/ml
T % MPGC [3, 6]: 120 min
% TRPG0-3 hr ([3]; lung spray-IT, insulin 0.05 mg/kg alone, listed as Insulin alone): 47 ± 10%
% MPGC [3, 7]: 70.2%
% TRPG0→3 hr [3, 7]: 10.5 ± 1.5%
AACE0→t [3, 7]: 1892 ± 989 μU · min/ml
T % MPGC [3, 7]: 180
% TRPG0→3 hr ([3]; spray-IT, porcine insulin 0.01 mg/kg, Table 3, listed as insulin): 10.5%
% MPGC [3, 8]: 35.69%
% TRPG0→3 hr [3, 8]: 47.2 ± 9.5%
AACE0→t [3, 8]: 8497 ± 1716 μU · min/ml
T % MPGC [3, 8]: 120
% MPGC [3, 9]: 35.3%
% TRPG0→3 hr [3, 9]: 50.5 ± 12.7%
AACE0→t [3, 9]: 9102 ± 2295 μU · min/ml
T % MPGC [3, 9]: 120
% MPGC [3, 10]: 30.6%
% TRPG0→3 hr [3, 10]: 54.5 ± 6.5%
AACE0→t [3, 10]: 10205 ± 1173 μU · min/ml
T % MPGC [3, 10]: 60
% MPGC [3, 11]: 13.1%
% TRPG0→3 hr [3, 11]: 73.7 ± 3.1%
AACE0→t [3, 11]: 13266 ± 570 μU · min/ml
T % MPGC [3, 11]: 120
% TRPG0→3 hr ([3]; spray-IT, porcine insulin 1.0 mg/kg, Table 3, listed as insulin): 73.7%
half-life of decline in plasma concentrations [4]: 27.8 to 142.4 min
t½ (abs) ([4]; 0.001 mg/kg): 27.8 min
t½ (elim) ([4]; 0.001 mg/kg): 3.0 min
t½ (abs) ([4]; 0.005 mg/kg): 42.6 min
t½ (elim) ([4]; 0.005 mg/kg): 3.0 min
tmax ([4]; 0.01 mg/kg): 10 min
tmax ([4]; 0.05 mg/kg): 10 min
AUC ([4]; 0.1 mg/kg): 9517.5
tmax ([4]; 0.1 mg/kg): 10 min
AUC ([4]; 0.5 mg/kg): 60345
tmax ([4]; 0.5 mg/kg): 30 min
AUC ([4]; 1 mg/kg): 178143.5
tmax ([4]; 1 mg/kg): 30 min
relative bioavailability ([4]; sc): 12.46%

Results, then the molecule that gave them:

Cmax (serum insulin) [1]: 22.5 ± 4.0 μU/ml
Molecule: COc1cccc(C(=O)Nc2ccc(CCC(=O)[O-])cc2)c1OC.[Na+] [Carrier C sodium salt]

Cmax (serum insulin) [1]: 58.8 ± 12.0 μU/ml
melting point: 113 to 114 °C
Molecule: Cc1ccc(C(=O)NCCCCCCCC(=O)O)c(O)c1 [Carrier D, N-(4-methylsalicyloyl)-8-aminocaprylic acid]
